Laboratory results as given in patent publication EP4563573A1, “COMPOUND, AND PREPARATION METHOD THEREFOR AND USE THEREOF IN PREPARATION OF SEH INHIBITOR AND PPARS AGONIST” (Shenyang Pharmaceutical University, priority 2023, dated 2024).
Like-named read-outs stand apart in the source and are kept apart here.

Legend:
[1] = system: CFA-induced AIA mouse model; details: C57BL/6 mice, oral gavage
[2] = system: L-arginine-induced acute pancreatitis model; details: 5 mg/kg, n=5
From the text: Pathological changes were studied on H&E stained pancreatic sections (FIG. 17).
Specifically, panel (A) represents edema, panel (B) represents inflammatory cells (mononuclear and polymorphonuclear cells), panel (C) represents parenchymal atrophy, and panel (D) represents the total score (edema, mononuclear cell, polymorphonuclear cell, and parenchymal atrophy) (n=5 for each group) *p<0.05, **p<0.01 vs Mod.

[3] = system: CFA-induced rheumatoid arthritis model
Experimental: Except for the normal group, the animals in the other groups were injected with 25 µL/mouse of CFA at the bottom of right feet. Different drugs were prepared with pure water to the corresponding concentrations before administration. 30 min after modeling, different test substances were administrated to the animals in each group by oral gavage at 20 mL/kg, 1 time on the same day. The normal control group and the model control group were given the same volume of pure water. […] On the 20th day after modeling, all model animals were regrouped according to the joint index score and administrated with 20 mL/kg by oral gavage 1 time daily for consecutive 7 days. The joint index score of each group was determined on the 3rd and 7th days after administration, and the pain threshold of the animals was tested with a hot plate instrument after the last administration.
The significant figures of the test data were rounded off and statistical analysis was conducted in accordance with SOP. The software used for statistics was SPSS22.0. Measurement data were expressed as Mean ± standard deviation (x ± s), and Leven's test was used to test normality and homogeneity of variance. If there was no statistical significance (P>0.05), statistical analysis was done using one-factor ANOVA. If ANOVA was statistically significant (P≤0.05), LSD test (parametric method) was used for comparative analysis. If variance was unequal (P≤0.05), the Kruskal-Wallis test was used. If the Kruskal-Wallis test was statistically significant (P≤0.05), Dunnett's Test (nonparametric method) was used for comparative analysis.

chronic granuloma model = details: rats, 20 mg/kg oral gavage once a day for 7 days (medium-dose; celecoxib group)
Experimental: After the animals were anesthetized by isoflurane inhalation, cotton balls of about 50 mg were buried in the groin of the rats on both sides. The surgical procedure was strictly conducted aseptically. Penicillin was injected intraperitoneally for anti-inflammatory treatment after surgery. Before administration, different drugs were prepared into a concentration of 0.5 mg/mL with pure water in each group, and different test substances were administered by oral gavage at 10 mL/kg, 1 time a day for consecutive 7 days, while the model control group was administrated with an equal volume of pure water. After the last administration, the mice were anesthetized by isoflurane inhalation and then bled, and the cotton ball granuloma was removed and weighed to calculate the degree of swelling (wet weight of cotton ball granuloma - dry weight of cotton ball).
The significant figures of the test data were rounded off and statistical analysis was conducted in accordance with SOP. The software used for statistics was SPSS22.0. Measurement data were expressed as Mean ± standard deviation (x ± s), and Leven's test was used to test normality and homogeneity of variance. If there was no statistical significance (P>0.05), statistical analysis was done using one-factor ANOVA. If ANOVA was statistically significant (P≤0.05), LSD test (parametric method) was used for comparative analysis. […]

PPARγ = biological target: T1, PPARγ (Homo sapiens, UniProt P37231); test: PPARγ agonist activity test (luciferase reporter gene); type: cell-based
T1 sequence (P37231 204-505): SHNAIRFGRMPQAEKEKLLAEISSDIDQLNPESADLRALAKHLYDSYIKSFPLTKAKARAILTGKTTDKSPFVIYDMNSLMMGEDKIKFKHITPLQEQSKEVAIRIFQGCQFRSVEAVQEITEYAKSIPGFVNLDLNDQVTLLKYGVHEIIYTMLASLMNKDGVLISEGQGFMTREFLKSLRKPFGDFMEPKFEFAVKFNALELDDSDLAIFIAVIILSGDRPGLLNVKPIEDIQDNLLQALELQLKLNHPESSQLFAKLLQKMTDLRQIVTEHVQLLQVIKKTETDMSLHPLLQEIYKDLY
From the text: • 1. PPARγ agonist activity test Detection principle: when pM-hPPAR binds to the appropriate ligand, and is activated and binds to the GAL4DNA binding site in the plasmid pB4-RES-tk-luc, thereby initiating the expression of the downstream luciferase reporter gene. The amount of luciferase is detected to determine whether the compound to be tested is a PPAR agonist. • 2.

[4] = Stability of liver microsomes; details: for Average concentration in microsomal buffer: Rat; for half-life: rat, microsomes
From the text: Table 5 Average concentration of SP-B07 in microsomal buffer at different time points (ng/mL)

[5] = Plasma protein binding rate (equilibrium dialysis); details: rat
Experimental: The plasma protein binding rate (%PPB) of SD rats was measured by classical equilibrium dialysis apparatus.

[6] = Pharmacokinetics after intravenous and oral administration
Experimental: Blood levels were measured within 8 hours after oral administration. […] Table 7 PK of SP-B07 after intravenous and oral administration in rats (n=3)

[7] = system: CFA-induced AIA mouse model; test: CFA-induced AIA mouse model, intraperitoneal injection; type: in vivo; details: female KM mice, compared with celecoxib-10 mg/kg
Experimental: (§1) The pain threshold of AIA mice was tested by the hot plate method. […] A curve of the increase in pain threshold over time was plotted (panel (B) in FIG. 10), and the AUC value of the percentage increase in pain threshold was obtained (panel (C) in FIG. 10). […] Finally, the thickness of the paws of the AIA mouse model at different time points after compound injection was evaluated and compared with the thickness of the mouse paws before modeling, and the swelling reduction rate of the mouse paws was calculated.
as §1, with “11),” for “10),”, “11).” for “10).”

LPS-induced sepsis model = test: LPS-induced sepsis model; type: in vivo, Male C57BL/6 mice; details: LPS 25 mg/kg i.p., administration 4 h after modeling, twice at 8 h interval, n=7
Experimental: The drug was administered twice, with an interval of 8 h between administrations.

[8] = system: CD60 diet + streptozotocin-induced diabetes; test: CD60 feed + streptozotocin-induced diabetes model; type: in vivo, male C57BL/6 mice; details: SP compounds 30 and 90 mg/kg; pioglitazone 3 mg/kg
From the text: Diabetes is a chronic metabolic disease characterized by elevated blood glucose, and its incidence has been increasing over the past few decades. There is no desirable therapeutic drug at present, and the research on drugs for the treatment of diabetes and its related complications such as diabetic pain is highly urgent. […] Compared with the Control group, ****P<0.0001, ***P<0.001, **P<0.01 and *P<0.05.

murine sEH (MsEH) = biological target: T2, murine sEH (MsEH) (Mus musculus, UniProt P34914); test: biochemical
T2 sequence (P34914 1-554): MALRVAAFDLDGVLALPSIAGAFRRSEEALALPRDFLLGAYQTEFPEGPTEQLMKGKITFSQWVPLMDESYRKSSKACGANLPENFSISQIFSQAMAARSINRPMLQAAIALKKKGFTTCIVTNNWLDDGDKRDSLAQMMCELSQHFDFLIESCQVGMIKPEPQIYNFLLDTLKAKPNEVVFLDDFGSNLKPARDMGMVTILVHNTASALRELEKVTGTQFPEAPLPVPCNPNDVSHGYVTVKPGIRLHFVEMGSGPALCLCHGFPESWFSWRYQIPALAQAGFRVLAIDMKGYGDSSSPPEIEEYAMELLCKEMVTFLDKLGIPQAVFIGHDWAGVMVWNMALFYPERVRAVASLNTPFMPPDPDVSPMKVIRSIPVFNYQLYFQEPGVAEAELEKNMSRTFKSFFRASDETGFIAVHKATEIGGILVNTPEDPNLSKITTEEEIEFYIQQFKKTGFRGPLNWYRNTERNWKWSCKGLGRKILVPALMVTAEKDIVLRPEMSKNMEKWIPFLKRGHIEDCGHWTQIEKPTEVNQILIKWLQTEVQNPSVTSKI
Experimental: (§2) Detection principle: a specific substrate, (3-phenyl-oxy)-acetic acid cyano-(6-methoxy-naphthalen-2-yl) methyl ester, namely PHOME, is non-fluorescent but can be hydrolyzed under the action of sEH enzyme to generate a product 6-methoxy-2-naphthaldehyde. […] Based on the above principle, the inhibition rates of samples with different concentrations were calculated compared with the positive control group. The IC50 value of the compound was calculated based on the inhibition rate and concentration using SPSS 20 software.
(§3) PHOME solution: 0.79 mg PHOME was dissolved in 106 µL DMSO to obtain a 20 mM PHOME solution, which was diluted to 1/3 mM with Tris-HCl buffer when used.
(§4) sEH solution: sEH (5 mg/mL) stock solution was stored in a -80°C refrigerator and diluted to 4 µg/mL with 25 mM Tris-HCl buffer when used.
(§5) A sample powder to be tested was dissolved in DMSO to a 20 mM solution, stored in a - 20°C refrigerator for later use, and diluted with Tris-HCl buffer to the corresponding concentration when used.
(§6) Experimental design: solvent group, 100% activity group (A), inhibitor group (B), positive control group (C), as shown in Table 1.
(§7) Three replicate wells were set for each sample, and the average of the three replicate wells was the fluorescence value (F) of the compound to be tested. […] The IC50 value of the compound was calculated based on the inhibition rate and concentration using SPSS 20 software.
(§8) The activity of the compounds was evaluated using a biochemical method with [cyano-(6-methoxynaphthalen-2-yl)methyl] 2-(3-phenyloxiran-2-yl)acetate (PHOME) as a substrate using recombinant human sEH (HsEH) and murine sEH (MsEH).

[9] = biological target: T3, recombinant human sEH (HsEH) (Homo sapiens, UniProt P34913)
T3 sequence (P34913 1-555): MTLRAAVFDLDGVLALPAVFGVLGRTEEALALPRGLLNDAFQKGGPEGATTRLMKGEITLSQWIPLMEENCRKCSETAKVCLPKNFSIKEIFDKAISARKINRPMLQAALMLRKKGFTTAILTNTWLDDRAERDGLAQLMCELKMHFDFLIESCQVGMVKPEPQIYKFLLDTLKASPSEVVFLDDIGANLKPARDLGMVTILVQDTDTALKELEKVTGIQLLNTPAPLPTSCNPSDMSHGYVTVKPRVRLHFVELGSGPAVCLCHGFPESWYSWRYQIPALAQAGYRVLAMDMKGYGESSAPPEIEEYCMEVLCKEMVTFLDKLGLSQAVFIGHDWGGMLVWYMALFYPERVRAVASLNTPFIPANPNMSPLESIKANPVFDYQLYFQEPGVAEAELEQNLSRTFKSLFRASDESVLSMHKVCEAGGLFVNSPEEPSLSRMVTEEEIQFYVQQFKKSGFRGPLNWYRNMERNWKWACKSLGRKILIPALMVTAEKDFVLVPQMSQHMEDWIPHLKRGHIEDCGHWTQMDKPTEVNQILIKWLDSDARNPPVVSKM
Experimental: as §2, §3, §4, §5, §6, §7, §8

[10] = 30 mg/kg oral gavage (medium-dose; celecoxib group), 0.5 h after administration
[11] = 30 mg/kg oral gavage (medium-dose; celecoxib group), 2 h after administration
[12] = 30 mg/kg oral gavage (medium-dose; celecoxib group), 4 h after administration

Cc1ccc(-c2cc(C(F)(F)F)nn2-c2ccc(S(N)(=O)=O)cc2)cc1 [Celecoxib, celecoxib]
time after administration at which the pain threshold began to rise [1]: 30 min | pancreatic injury histological score [2]: 3.50±1.80 | Pain threshold in acute inflammatory state ([3]; 30 mg/kg group (medium-dose; celecoxib group), Before administration): 20.7±4.2 | Pain threshold in chronic inflammatory state ([3]; 30 mg/kg oral gavage (medium-dose; celecoxib group), once daily for 7 days, End of administration): 13.7±4.6 | Acute pain threshold increase rate of mice [3, 10]: -35.2±29.8% | Pain threshold in acute inflammatory state [3, 10]: 13.2±6.3 | Acute pain threshold increase rate of mice ([3]; 30 mg/kg oral gavage (medium-dose; celecoxib group), 1 h after administration): -52.3±55.5% | Acute pain threshold increase rate of mice [3, 11]: 34.52±54.1 % | Pain threshold in acute inflammatory state [3, 11]: 23.9±5.3 | Acute pain threshold increase rate of mice [3, 12]: -11.6±32.6 % | Pain threshold in acute inflammatory state [3, 12]: 18.7±6.0 | Swelling degree (chronic granuloma model): 0.9904±0.12++

O=C(Nc1ccc(OC(F)(F)F)c(F)c1)NC1CCC(Oc2ccc(C=C3SC(=O)NC3=O)cc2)CC1 (centres unmarked) [SP-B07, 1-((1r,4r)-4-{4-[(E)-(2,4-dioxothiazolidin-5-ylidene)methyl]phenoxy}cyclohexyl)-3-[3-fluoro-4-(trifluoromethoxy)phenyl]urea]
EC50 (PPARγ): 1430 nM | PPARγ (compared with Rosiglitazone, %) (PPARγ; relative to Rosiglitazone): 19.3% | Average concentration in microsomal buffer ([4]; 0 min): 100 ng/mL | Average concentration in microsomal buffer ([4]; 10 min): 86.26 ng/mL | Average concentration in microsomal buffer ([4]; 60 min): 58.82 ng/mL | Average concentration in microsomal buffer ([4]; 120 min): 57.01 ng/mL | Average concentration in microsomal buffer ([4]; 240 min): 55.61 ng/mL | Average concentration in microsomal buffer ([4]; 360 min): 52.33 ng/mL | Average concentration in microsomal buffer ([4]; 720 min): 43.73 ng/mL | half-life ([4]; half-life (t1/2) in rat liver microsomes, rat liver microsomes): 5.5 h | half-life ([4]; t1/2, rat liver microsomes, table): 5.5 h | fraction unbound [5]: 0.0471 | AUC(0-inf) ([6]; rat, in vivo, iv, 10 mg/kg): 16.9 µM·h | AUC(0-t) at 8 h ([6]; rat, in vivo, iv, 10 mg/kg): 14.1 µM·h | Cmax ([6]; rat, in vivo, iv, 10 mg/kg): 3290 nM | Tmax ([6]; rat, in vivo, iv, 10 mg/kg): 0.083 h | Vd ([6]; rat, in vivo, iv, 10 mg/kg): 3.71 L/kg | clearance ([6]; rat, in vivo, iv, 10 mg/kg): 13.2 mL/min/kg | half-life ([6]; rat, in vivo, iv, 10 mg/kg, t1/2, rats, i.v. 10 mg/kg): 1.91 h | AUC(0-inf) ([6]; rat, in vivo, po, 50 mg/kg): 17.7 µM·h | AUC(0-t) at 8 h ([6]; rat, in vivo, po, 50 mg/kg): 13.8 µM·h | Cmax ([6]; rat, in vivo, po, 50 mg/kg): 1140 nM | Tmax ([6]; rat, in vivo, po, 50 mg/kg): 0.5 h | bioavailability ([6]; rat, in vivo, po, 50 mg/kg): 19.5% | time at which maximum concentration was reached after intravenous injection ([6]; rats, i.v. 10 mg/kg): 2 min | t1/2 ([6]; rats, i.v. 10 mg/kg, 10 mg/kg): 3.26 h | analgesic effect (percentage increase in pain threshold, hot plate method) [7]: better than that of celecoxib | detumescence rate on mouse paws (swelling reduction rate) [7]: superior to celecoxib | increase of the survival rate (LPS-induced sepsis model): 42.8% | lowering blood glucose and improving diabetic neuropathic pain [8]: effective | IC50 (murine sEH (MsEH)): 0.42 nM | IC50 [9]: 0.06 nM
